“Also recorded” adds a separate entry of the source.

Consider 1 compound from patent US10322112B2, “Compound combinations for attenuation of bacterial virulence” (priority 2016, dated 2019).

Assay [1] has as its system P. aeruginosa (PAO1). The assay can be described thus: Elastase B assay. In kind it is cell-based, Pseudomonas aeruginosa. The note with it: MOPS Glutamate and Glucose media, complete or iron/phosphate depleted, 17 h, 100 μM (compounds 1, 2, 3), relative to DMSO. The procedure:
A. Pyocyanin Assay Protocol. The amount of pyocyanin in P. aeruginosa culture supernatants was measured following a reported protocol (O'Loughlin et al., 2013) with modifications. A 10 mL overnight culture of P. aeruginosa PAO1 was grown for 16 h. DMSO stock solutions of test compounds (20 mM) were prepared, and 10 μL or 5 μL aliquots were added to sterile 15 mL borosilicate glass test tubes. An inoculating culture was prepared by diluting the overnight culture 1:100 into freshly prepared assay medium (see above), and 2 mL aliquots of this subculture were added to each test tube (0.5% DMSO, final). The cultures were grown for 17 h, and the final cell density measured by reading OD600. Relative pyocyanin levels were measured by first pelleting 1.5 mL of well-mixed culture at 4,000 g for 10 min, transferring 200 μL of the resulting supernatant to a clear, plastic 96-well microtiter plate, and reading absorbance at 695 nm. Media background absorbance (measured from a “no bacteria” control) was subtracted, the resulting values growth normalized by dividing by the final OD600378, and the data plotted relative to a DMSO-treated positive control. B. Rhamnolipid Assay Protocol. Rhamnolipid was quantified following a reported protocol (Koch et al., 1991) with modifications. Assay cultures were prepared and grown in an identical manner to the pyocyanin assay above. Aliquots of the final culture supernatant (1 mL) were transferred to 1 dram glass vials and extracted twice with 1 mL diethyl ether. The pooled organic fractions were evaporated to dryness, and the resulting residue reconstituted in 200 μL de-ionized water. […] After briefly cooling to room temperature, 200 μL of the resulting yellow to yellow-orange solution was transferred to a clear 96-well microtiter plate, and the absorbance at 421 nm measured. Media background absorbance (measured from a “no bacteria” control) was subtracted, the resulting values growth normalized by dividing by the final OD600, and the data plotted relative to a DMSO-treated positive control. […] The amount of elastase B in P. aeruginosa culture supernatants was measured following a reported protocol (Geske et al., 2007) with modifications. […] To quantify elastase B activity, the undigested elastin was pelleted by centrifugation of the assay plate at 1,500 g for 10 min, after which 100 μL of the supernatant was transferred to a new, clear 96-well plate, and the absorbance at 490 nm measured. Media background absorbance (measured from a “no bacteria” control) was subtracted, the resulting values growth normalized by dividing by the final OD600, and the data plotted relative to a DMSO-treated positive control.

In assay [2] the test system is P. aeruginosa (PAO1). The assay is described as follows: P. aeruginosa growth curves. Type of assay: cell-based, Pseudomonas aeruginosa. The procedure: FIGS. 2A-2D are wild-type P. aeruginosa growth curves in the presence of test compounds in various media. Related to FIGS. 3, 6A and 6B, 7A and 7B, and 12. (FIG. 2A) Growth curves in complete MOPS/Glutamate. (FIG. 2B) Growth curves in complete MOPS/Glucose. […] (FIG. 2D) Growth curves in SCFM2. P. aeruginosa (PAO1) was grown in a manner identical to the pyocyanin assay (see Experimental Procedures). At each time point, growth was measured by either reading OD600 (for MOPS media) or by serially diluting culture aliquots, plating on LB agar, and counting CFUs after overnight incubation at 37° C. (for SCFM2). Compound concentrations are 100 microM for compounds 1, 2, and 3 and 25 microM for compound 4 in all experiments unless noted otherwise. Error bars represent the standard error of at least two biological replicates (n≥2). BHL=N-butyryl L-homoserine lactone (Cayman Chemicals).
B. Bacterial Strains and Growth Conditions. Protocols for construction of genetic knockout strains are described below in Example 2. All reagents for bacterial culture were purchased from Sigma-Aldrich unless indicated otherwise. Bacteria were routinely cultured in Luria-Bertani broth (LB) at 37° C. with shaking at 200 rpm. Freezer stocks of bacterial strains were maintained at −80° C. in 1:1 LB:glycerol. Bacterial growth was routinely assessed by measuring the culture cell density according to absorbance at 600 nm (OD600341). Cell growth in simulated cystic fibrosis sputum medium (SCFM2) was determined by serially diluting assay cultures, plating on LB agar, and counting the number of colony forming units (CFU) appearing after overnight incubation at 37° C.

As to `O=C(N[C@H]1CCOC1=O)C1CCCC1` [compound 3], the “elastase B production, single compound screens” value in the assay with P. aeruginosa (PAO1) [1] is “induced additional rhamnolipid and elastase B production”. The “growth with other carbon sources” value in the assay with P. aeruginosa (PAO1) [2] (complete MOPS Glucose or LB broth, 100 μM compound 3) was “did not observe growth effects with other carbon sources”. For the same compound, in the assay with P. aeruginosa (PAO1) [2] (complete MOPS Glutamate, 100 μM), the “growth in MOPS Glutamate” value is “growth delay; also recorded: delayed P. aeruginosa growth in MOPS Glutamate”.
